Reference: patent publication US6500846B1, “CDK inhibitors having flavone structure” (LG Chemical, Ltd., priority 1998, dated 2002)

Columns and labels:
CDK2/cyclin A = target: T1, CDK2/cyclin A (Homo sapiens, UniProt P24941); assay: Inhibitory activity against CDK2/cyclin A enzyme (GST-RB phosphorylation, P32-γ-ATP, scintillation counting); type: biochemical; conditions: 100 μM ATP, GST-RB substrate, 30° C. 30 minutes
T1 construct: made in house; host or cells: insect cells infected with baculoviruses
Protocol: (§1) Analysis of inhibitory activity against CDK2/cyclin A and CDK4/cyclin D1 enzyme.
(§2) The inhibitory activity against CDK2 is measured by referring to Kitagawa, M. et al., Oncogene 9:2549, 1994 and the inhibitory activity against CDK4 is measured by referring to Carlson, B. A. et al., Cancer Research 56:2473,1996.
(§3) As for CDK2, either the extract from the insect cell infected both with baculovirus which expresses CDK2 gene and baculovirus which expresses cyclin A gene or the active enzyme which had been purified therefrom was used. CDK4 enzyme was also obtained from the insect cell infected both with baculovirus expressing CDK4 gene and baculovirus expressing cyclin D1 gene. As the substrate for CDK2, either histon H1 or Rb protein was used. Rb protein was also used as the substrate for CDK4.
(§4) Specifically the activities of enzymes CDK2/cyclin A and CDK4/cyclin D1 were determined according to the following procedure.
(§5) 100 ng of enzyme was reacted in a total 1000 μl of 20 mM Tris (pH 8.0), 100 mM NaCl, 10 mM MgCl2 buffer solution containing 20 μg of GST-RB protein, 100 μM of ATP and 5 μCi of P32-γ-ATP at 30° C. for 30 minutes. Then, the enzyme reaction was stopped by adding EDTA to a concentration of 20 mM. Subsequently, 30 μl of 50% glutathione bead (purchased from Pharmacia) was added to attach GST-RB to the bead, which was washed three times with 20mM Tris (pH 8.0), 100 mM NaCl, 10 mM EDTA solution, and then scintillation counting was carried out. To analyze the inhibitory activity of the compound, the inhibitor having a proper concentration was added to the enzyme reaction solution, and then the enzyme activity was measured according to the above method.
(§6) The inhibitory activity of the compound of formula (1) according to the present invention against CDK2 and CDK4 is represented as IC50 value. The compounds which are not included in Examples(compound 63, 64, 65 and 66) were synthesized and purified according to the same procedure as examples, and then IC50 thereof was measured.

CDK4/cyclin D1 = target: T2, CDK4/cyclin D1 (Homo sapiens, UniProt P11802); assay: Inhibitory activity against CDK4/cyclin D1 enzyme (GST-RB phosphorylation, P32-γ-ATP, scintillation counting); type: biochemical; conditions: CDK4/cyclin D1, 100 μM ATP, GST-RB substrate, 30° C. 30 minutes
T2 construct: made in house; host or cells: insect cells infected with baculoviruses
T2 sequence (P11802 whole entry, species assumed): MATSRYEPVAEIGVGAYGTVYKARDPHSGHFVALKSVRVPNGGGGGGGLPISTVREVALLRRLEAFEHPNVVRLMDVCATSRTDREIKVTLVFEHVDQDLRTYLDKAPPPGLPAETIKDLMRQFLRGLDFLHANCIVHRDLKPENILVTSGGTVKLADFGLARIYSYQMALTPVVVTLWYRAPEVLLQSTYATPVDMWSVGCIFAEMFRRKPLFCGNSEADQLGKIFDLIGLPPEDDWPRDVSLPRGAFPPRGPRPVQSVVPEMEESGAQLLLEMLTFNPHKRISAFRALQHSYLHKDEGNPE
T2 sequence (P24385 whole entry partner, species assumed): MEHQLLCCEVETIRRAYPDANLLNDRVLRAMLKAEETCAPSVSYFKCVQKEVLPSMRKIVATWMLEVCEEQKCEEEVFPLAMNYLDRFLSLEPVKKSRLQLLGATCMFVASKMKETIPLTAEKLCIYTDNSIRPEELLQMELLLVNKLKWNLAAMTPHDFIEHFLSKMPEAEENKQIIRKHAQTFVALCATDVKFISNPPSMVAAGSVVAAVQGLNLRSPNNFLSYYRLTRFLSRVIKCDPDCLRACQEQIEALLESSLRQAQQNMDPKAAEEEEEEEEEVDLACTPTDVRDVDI
Protocol: as §1, §2, §3, §4, §5, §6

in vivo = conditions: male, ICR, mouse, po
Protocol: The acute oral toxcities of the compounds 14, 17, 28, 39, 51 and 57 each of which is obtained in Examples 14, 17, 73,84, 96 and 102, respectively are investigated in the following.
Solutions containing a compound in several different concentrations from each other were prepared, and they were administered orally to ICR male mouse with a dose of 10 ml/kg.
After administration, lethality and symptoms for 7 days were observed, and LD50 (mg/kg) was calculated according to Litchfield-Wilcoxon' method.

| Compound | IC50 (CDK2/cyclin A) [µM] | IC50 (CDK4/cyclin D1) [µM] | LD50 at 7 days (in vivo) [mg/kg] |
| --- | --- | --- | --- |
| O=c1c(O)c(-c2ccc(O)c(O)c2)oc2ccc(NS(=O)(=O)c3ccc(C(F)(F)F)cc3)cc12 [Compound 39, N-[2-(3,4-dihydroxyphenyl)-3-hydroxy-4-oxo-4H-chromen-6-yl]-4-(trifluoromethyl)benzenesulfonamide] | 55 | 6.4 | > 3000 |
| CC(=O)Nc1ccc2oc(-c3ccc(O)c(O)c3)c(O)c(=O)c2c1 [Compound 51, N-[2-(3,4-dihydroxyphenyl)-3-hydroxy-4-oxo-4H-chromen-6-yl]acetamide] | 5.6 | 5.6 | > 3000 |
| O=c1c(O)c(-c2ccc(O)c(O)c2)oc2ccc(F)cc12 [Compound 17, 6-fluoro-2-(3,4-dihydroxyphenyl)-3-hydroxy-4H-chromen-4-one] | < 10 | < 10 | > 3000 |
